Patent US10035778B2, “Meta-azacyclic amino benzoic acid derivatives as pan integrin antagonists” (Saint Louis University, priority 2015, dated 2018)

Legend:
Format in all cases: binding
[1] = biological target: Recombinant human integrin α5β1 (Homo sapiens (Human), UniProt P05556+P08648); experiment: Solid Phase Receptor Assay (SPRA) for α5β1 function; settings: fibronectin-coated plate
Experimental: 1. Solid Phase Receptor Assay (SPRA) for α5β1 Function
Purified human fibronectin (R&D Systems, 1918-FN) diluted to 2 μg/mL in TBS+ buffer (25 mM Tris pH 7.4, 137 mM NaCl, 2.7 mM KCl, 1 mM CaCl2, 1 mM MgCl2, 1 mM MnCl2) was added to wells (50 μL/well) of a 96-well half-well transparent microtiter plate (Greiner 675061) and incubated overnight at 4° C. Wells were washed 3 times with 150 μL TBS+ and 150 μL of blocking buffer (TBS+ with 1% bovine serum albumin, Sigma A7906) were added. The plate was incubated for 1 hr at 37° C. and then washed 3× with TBS+ buffer. Recombinant human integrin α5β1 (R&D Systems, 3230-A5) was diluted to 0.1 μg/mL in TBS+/0.1% bovine serum albumin. Compounds were diluted 1:100 into the integrin solution and then 50 μL added to empty wells of the washed fibronectin-coated plate according to a standard template with each sample repeated in triplicate. After incubation for two hours at room temperature, the plate was washed 3× with 150 μL of TBS+ buffer. To each well, 50 μl of biotinylated anti-α5 antibody (R&D Systems, BAF1864) at 0.5 μg/mL in TBS+/0.1% BSA were added and the plate covered and incubated for 1 hr at room temperature. After washing the plate 3× with 150 μL of TBS+ buffer, 50 μL of streptavidin-conjugated horseradish peroxidase (R&D Systems, DY998) diluted in TBS+ blocking buffer were added to the wells and the plate incubated for 20 min at room temperature. The plate was washed 3× with TBS+ buffer followed by 50 μL of room temperature TMB substrate (Sigma, T444) added to each well and the plate incubated for 20 min at room temperature. Plates were read by colorimetric detection at 650 nm wavelength using a Tecan Safire II plate reader. Concentration-response curves were constructed by non-linear regression (best fit) analysis, and IC50 values were calculated for each compound.

[2] = biological target: Recombinant human integrin α8β1 (Homo sapiens (Human), UniProt P05556+P53708); experiment: Solid Phase Receptor Assay (SPRA) for α8β1 function; settings: mouse nephronectin-coated plate
Recombinant human integrin α8β1, sequence (P53708 39-1012): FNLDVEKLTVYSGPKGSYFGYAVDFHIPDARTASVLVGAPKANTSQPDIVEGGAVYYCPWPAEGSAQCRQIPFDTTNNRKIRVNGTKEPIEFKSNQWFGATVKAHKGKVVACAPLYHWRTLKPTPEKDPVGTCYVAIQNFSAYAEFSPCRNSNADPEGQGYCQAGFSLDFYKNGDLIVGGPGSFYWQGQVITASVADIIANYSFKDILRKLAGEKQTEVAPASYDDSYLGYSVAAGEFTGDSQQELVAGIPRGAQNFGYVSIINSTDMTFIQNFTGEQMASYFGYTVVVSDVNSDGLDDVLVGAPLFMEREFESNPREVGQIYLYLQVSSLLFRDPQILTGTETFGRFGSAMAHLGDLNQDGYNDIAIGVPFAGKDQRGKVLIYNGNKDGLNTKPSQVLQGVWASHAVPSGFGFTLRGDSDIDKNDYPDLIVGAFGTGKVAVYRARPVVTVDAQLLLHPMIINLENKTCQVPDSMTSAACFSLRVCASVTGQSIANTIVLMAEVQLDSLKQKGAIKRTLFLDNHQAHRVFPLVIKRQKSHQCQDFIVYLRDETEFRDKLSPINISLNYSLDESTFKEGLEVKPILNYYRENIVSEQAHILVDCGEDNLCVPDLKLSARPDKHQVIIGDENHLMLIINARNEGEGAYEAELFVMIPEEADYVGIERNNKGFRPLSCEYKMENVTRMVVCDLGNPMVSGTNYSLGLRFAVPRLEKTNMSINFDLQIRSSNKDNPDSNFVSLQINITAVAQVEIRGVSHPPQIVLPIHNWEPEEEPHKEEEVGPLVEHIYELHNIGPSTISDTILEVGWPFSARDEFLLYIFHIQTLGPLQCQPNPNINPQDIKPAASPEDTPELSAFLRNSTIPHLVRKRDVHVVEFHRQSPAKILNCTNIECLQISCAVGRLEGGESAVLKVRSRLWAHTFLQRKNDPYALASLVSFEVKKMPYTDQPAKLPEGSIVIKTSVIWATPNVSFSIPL
Recombinant human integrin α8β1, sequence (P05556 21-728): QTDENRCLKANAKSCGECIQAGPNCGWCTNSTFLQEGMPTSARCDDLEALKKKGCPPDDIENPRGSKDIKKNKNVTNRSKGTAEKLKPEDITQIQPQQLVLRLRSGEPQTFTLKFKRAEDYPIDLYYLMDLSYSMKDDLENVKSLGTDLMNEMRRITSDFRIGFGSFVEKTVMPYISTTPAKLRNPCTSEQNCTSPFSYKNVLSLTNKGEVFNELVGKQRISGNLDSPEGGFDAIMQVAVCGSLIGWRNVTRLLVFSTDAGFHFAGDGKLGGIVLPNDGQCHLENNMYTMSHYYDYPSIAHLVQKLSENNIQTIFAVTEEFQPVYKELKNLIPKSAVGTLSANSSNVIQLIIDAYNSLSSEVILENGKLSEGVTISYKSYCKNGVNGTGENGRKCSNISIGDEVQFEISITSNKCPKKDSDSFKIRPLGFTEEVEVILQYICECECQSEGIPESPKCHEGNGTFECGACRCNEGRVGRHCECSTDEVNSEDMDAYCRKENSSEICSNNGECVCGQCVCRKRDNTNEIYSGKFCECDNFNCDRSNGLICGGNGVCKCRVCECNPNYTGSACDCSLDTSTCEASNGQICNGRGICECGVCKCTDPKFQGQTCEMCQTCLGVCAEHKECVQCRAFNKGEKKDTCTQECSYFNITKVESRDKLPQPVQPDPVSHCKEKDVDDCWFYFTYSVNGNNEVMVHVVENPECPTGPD
Experimental: 7. Solid Phase Receptor Assay (SPRA) for α8β1 Function
Recombinant mouse nephronectin protein (R&D Systems, Inc, 4298-NP) diluted to 1 μg/mL in TBS+ buffer (25 mM Tris pH 7.4, 137 mM NaCl, 2.7 mM KCl, 1 mM CaCl2, 1 mM MgCl2, 1 mM MnCl2) was added to wells (50 μl/well) of a 96-well half-well transparent microtiter plate (Greiner 675061), and incubated overnight at 4° C. Wells were washed 3 times with 150 μL TBS+ and 150 μL of blocking buffer (TBS+ with 1% bovine serum albumin, Sigma A7906) were added. The plate was incubated for 1 hr at 37° C. and then washed 3× with TBS+. Recombinant human integrin α8β1 (R&D Systems, pre-launch) was diluted to 0.25 μg/mL in TBS+/0.1% bovine serum albumin. Compounds were diluted 1:100 into the integrin solution and 50 μL added to empty wells of the washed nephronectin-coated plate according to a standard template with each sample repeated in triplicate. After incubation for two hours at room temperature, the plate was washed 3× with 150 μL of TBS+. To each well, 50 μL of biotinylated anti-β antibody (R&D Systems, BAF1778) at 0.5 μg/mL in TBS+/0.1% BSA were added and the plate was covered and incubated for 1 hr at room temperature. After washing the plate 3× with 150 μL of TBS+ buffer, 50 μL of streptavidin-conjugated horseradish peroxidase (R&D Systems, DY998) diluted in TBS+ blocking buffer were added to the wells and the plate incubated for 20 min at room temperature. The plate was washed 3× with TBS+ followed by 50 μL of TMB substrate (Sigma T4444) added to each well and the plate incubated for 20 min at room temperature. Plates were read by colorimetric detection at 650 nm wavelength using a Tecan Safire II plate reader. Concentration-response curves were constructed by non-linear regression (best fit) analysis, and IC50 values were calculated for each compound.

[3] = biological target: Recombinant human integrin αvβ5 (Homo sapiens (Human), UniProt P06756+P18084); experiment: Solid Phase Receptor Assay (SPRA) for αvβ5 function; settings: vitronectin-coated plate
Recombinant human integrin αvβ5, sequence (P06756 31-992): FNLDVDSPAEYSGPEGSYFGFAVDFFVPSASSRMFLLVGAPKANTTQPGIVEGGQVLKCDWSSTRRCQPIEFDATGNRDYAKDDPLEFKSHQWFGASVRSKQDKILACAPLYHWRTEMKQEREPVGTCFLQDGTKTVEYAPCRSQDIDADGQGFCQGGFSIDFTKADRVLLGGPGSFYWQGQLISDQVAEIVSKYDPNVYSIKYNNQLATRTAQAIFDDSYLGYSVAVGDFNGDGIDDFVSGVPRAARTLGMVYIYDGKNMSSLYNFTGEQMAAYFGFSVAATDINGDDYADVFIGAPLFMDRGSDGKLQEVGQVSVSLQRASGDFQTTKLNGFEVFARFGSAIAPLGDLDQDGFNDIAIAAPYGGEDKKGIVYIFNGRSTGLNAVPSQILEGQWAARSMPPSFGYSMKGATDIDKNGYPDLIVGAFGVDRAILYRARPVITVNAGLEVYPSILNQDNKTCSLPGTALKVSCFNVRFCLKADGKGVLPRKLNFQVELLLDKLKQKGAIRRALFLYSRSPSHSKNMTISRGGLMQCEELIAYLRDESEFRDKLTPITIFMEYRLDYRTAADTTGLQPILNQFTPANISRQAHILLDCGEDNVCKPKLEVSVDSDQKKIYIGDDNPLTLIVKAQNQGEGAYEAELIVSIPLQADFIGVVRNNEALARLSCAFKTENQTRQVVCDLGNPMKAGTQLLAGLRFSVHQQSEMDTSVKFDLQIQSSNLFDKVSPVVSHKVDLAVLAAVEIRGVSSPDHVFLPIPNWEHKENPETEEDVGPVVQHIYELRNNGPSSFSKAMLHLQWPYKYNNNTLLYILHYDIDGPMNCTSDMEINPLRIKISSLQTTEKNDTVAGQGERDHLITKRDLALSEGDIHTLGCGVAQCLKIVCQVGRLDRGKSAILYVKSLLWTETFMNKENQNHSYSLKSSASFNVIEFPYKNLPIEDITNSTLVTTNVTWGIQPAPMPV
Recombinant human integrin αvβ5, sequence (P18084 24-719): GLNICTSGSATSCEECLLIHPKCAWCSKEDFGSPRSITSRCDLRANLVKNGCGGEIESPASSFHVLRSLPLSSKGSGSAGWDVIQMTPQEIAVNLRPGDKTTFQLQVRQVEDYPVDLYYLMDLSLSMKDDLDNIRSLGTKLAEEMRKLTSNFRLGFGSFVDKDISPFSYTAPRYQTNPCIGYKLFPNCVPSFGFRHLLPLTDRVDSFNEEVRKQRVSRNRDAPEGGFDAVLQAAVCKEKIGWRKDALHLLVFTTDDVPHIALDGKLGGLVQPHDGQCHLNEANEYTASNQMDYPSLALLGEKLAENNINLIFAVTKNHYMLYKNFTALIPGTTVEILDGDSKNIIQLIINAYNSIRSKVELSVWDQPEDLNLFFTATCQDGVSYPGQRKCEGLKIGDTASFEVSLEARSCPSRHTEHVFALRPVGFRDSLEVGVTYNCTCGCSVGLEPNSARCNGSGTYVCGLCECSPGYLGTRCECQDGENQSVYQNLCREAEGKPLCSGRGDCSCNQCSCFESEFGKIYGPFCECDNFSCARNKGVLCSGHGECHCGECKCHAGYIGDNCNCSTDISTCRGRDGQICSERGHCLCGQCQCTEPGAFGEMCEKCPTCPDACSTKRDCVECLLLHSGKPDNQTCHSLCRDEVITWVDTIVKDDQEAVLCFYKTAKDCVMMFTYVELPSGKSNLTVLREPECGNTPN
Experimental: 4. Solid Phase Receptor Assay (SPRA) for αvβ5 Function
Recombinant human vitronectin (R&D Systems, 2308-VN) at 0.25 μg/mL in TBS+ buffer (25 mM Tris pH 7.4, 137 mM NaCl, 2.7 mM KCl, 1 mM CaCl2, 1 mM MgCl2, 1 mM MnCl2) was added to wells (50 μL/well) of a 96-well half-well transparent microtiter plate (Greiner 675061) and incubated overnight at 4° C. Wells were washed 3 times with 150 μL TBS+ and 150 μL of blocking buffer (TBS+ with 1% bovine serum albumin, Sigma A7906) were added. The plate was incubated for 1 hr at 37° C. and then washed 3× with TBS+ buffer. Recombinant human integrin αvβ5 (R&D Systems, 2528-AV) was diluted to 0.1 μg/mL in TBS+/0.1% bovine serum albumin. Compounds were diluted 1:100 into the integrin solution and then 50 μL added to empty wells of the washed vitronectin-coated plate according to a standard template with each sample repeated in triplicate. After incubation for two hours at room temperature, the plate was washed 3× with 150 μL of TBS+ buffer. To each well, 50 μl of biotinylated anti-αv antibody (R&D Systems, BAF1219) at 0.5 μg/mL in TBS+/0.1% BSA at 0.5 μg/mL were added and the plate covered and incubated for 1 hr at room temperature. After washing the plate 3× with 150 μL of TBS+ buffer, 50 μL of streptavidin-conjugated horseradish peroxidase (R&D Systems DY998) diluted in TBS+ blocking buffer were added to the wells and the plate incubated for 20 min at room temperature. The plate was washed 3× with TBS+ buffer followed by 50 μL of TMB substrate (Sigma T4444) added to each well and the plate incubated for 20 min at room temperature. Plates were read by colorimetric detection at 650 nm wavelength using a Tecan Safire II plate reader. Concentration-response curves were constructed by non-linear regression (best fit) analysis, and IC50 values were calculated for each compound.

Recombinant human integrin α5β1, sequence (P08648 42-995): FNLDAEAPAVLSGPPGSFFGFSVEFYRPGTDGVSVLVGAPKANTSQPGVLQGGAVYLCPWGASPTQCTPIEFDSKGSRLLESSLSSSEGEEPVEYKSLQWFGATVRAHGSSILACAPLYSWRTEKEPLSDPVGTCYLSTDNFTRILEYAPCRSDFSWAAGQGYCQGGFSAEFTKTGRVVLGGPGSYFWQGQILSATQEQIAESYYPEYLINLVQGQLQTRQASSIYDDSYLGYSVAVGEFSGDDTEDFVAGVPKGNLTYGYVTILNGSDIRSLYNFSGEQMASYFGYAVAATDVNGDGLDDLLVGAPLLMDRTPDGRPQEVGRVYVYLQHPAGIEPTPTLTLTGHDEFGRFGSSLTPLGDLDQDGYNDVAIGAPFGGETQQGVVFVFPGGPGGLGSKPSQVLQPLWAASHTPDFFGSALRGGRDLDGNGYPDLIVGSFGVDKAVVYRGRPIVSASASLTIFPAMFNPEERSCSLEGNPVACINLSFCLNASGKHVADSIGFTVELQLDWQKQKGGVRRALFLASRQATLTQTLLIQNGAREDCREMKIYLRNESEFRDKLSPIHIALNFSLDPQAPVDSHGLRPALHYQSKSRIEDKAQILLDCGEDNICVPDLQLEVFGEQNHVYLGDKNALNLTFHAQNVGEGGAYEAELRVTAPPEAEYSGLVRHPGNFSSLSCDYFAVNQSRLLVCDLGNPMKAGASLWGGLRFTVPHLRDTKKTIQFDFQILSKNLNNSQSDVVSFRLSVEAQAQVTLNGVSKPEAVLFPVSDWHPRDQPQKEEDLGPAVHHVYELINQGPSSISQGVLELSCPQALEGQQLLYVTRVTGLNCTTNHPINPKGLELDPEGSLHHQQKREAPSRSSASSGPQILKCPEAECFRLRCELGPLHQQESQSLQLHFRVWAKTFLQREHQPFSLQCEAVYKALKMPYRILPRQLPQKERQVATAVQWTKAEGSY
Recombinant human integrin α5β1, sequence (P05556 21-728): as the sequence (P05556 21-728) above

| IC50 [1] [nM] | IC50 [2] [nM] | IC50 [3] [nM] | SMILES |
| --- | --- | --- | --- |
| 0.8 | 1.5 | 0.4 | O=C(O)C[C@H](NC(=O)CNC(=O)c1cc(O)cc(NC2=NCC(O)CN2)c1)c1cc(Br)cc(C(F)(F)F)c1 (stereo partly drawn) [Example 2, (3S)-3-(3-bromo-5-(trifluoromethyl)phenyl)-3-(2-(3-hydroxy-5-((5-hydroxy-1,4,5,6-tetrahydropyrimidin-2-yl)amino)benzamido)acetamido)propanoic acid] |
| 8 ± 3 | 40 | 0.4 | N=C(N)Nc1cccc(C(=O)NCC(=O)NC(CC(=O)O)c2cc(F)cc(C(F)(F)F)c2)c1 (stereo not drawn) [Example C9, reference compound] |
| 1 ± 0.5 | 1.3 | 0.2 | O=C(O)C[C@H](NC(=O)CNC(=O)c1cc(O)cc(NC2=NCC(O)CN2)c1)c1cc(Br)cc(Br)c1 (stereo partly drawn) [Example 1, (3S)-3-(3,5-dibromophenyl)-3-(2-(3-hydroxy-5-((5-hydroxy-1,4,5,6-tetrahydropyrimidin-2-yl)amino)benzamido)acetamido)propanoic acid] |
| 7 | 63 | 2 | Cc1cc(C)cc(C(CC(=O)O)NC(=O)CNC(=O)c2cccc(NC(=N)N)c2)c1 (stereo not drawn) [Example C4, reference compound] |
| 24 | 383 | 1 | N=C(N)Nc1cccc(C(=O)NCC(=O)NC(CC(=O)O)c2ccccc2)c1 (stereo not drawn) [Example C5, reference compound] |
| 2 | 0.8 | 0.4 | Cc1cc(Cl)cc([C@H](CC(=O)O)NC(=O)CNC(=O)c2cc(O)cc(NC3=NCC(O)CN3)c2)c1 (stereo partly drawn) [Example 12, (3S)-3-[3-chloro-5-methyl-phenyl)-3-(2-(3-hydroxy-5-((5-hydroxy-1,4,5,6-tetrahydropyrimidin-2-yl)amino)benzamido)acetamido)propanoic acid] |
| 1 ± 0.1 | 0.7 | 0.6 | O=C(O)C[C@H](NC(=O)CNC(=O)c1cc(O)cc(NC2=NCC(O)CN2)c1)c1cc(Br)cc(OC(F)(F)F)c1 (stereo partly drawn) [Example 17, (3S)-3-(3-bromo-5-(trifluoromethoxy)phenyl)-3-(2-(3-hydroxy-5-((5-hydroxy-1,4,5,6-tetrahydropyrimidin-2-yl)amino)benzamido)acetamido)propanoic acid] |
| 1 ± 0.4 | 0.5 | 0.6 | O=C(O)C[C@H](NC(=O)CNC(=O)c1cc(O)cc(NC2=NCC(O)CN2)c1)c1cc(Cl)cc(OC(F)(F)F)c1 (stereo partly drawn) [Example 16, (3S)-3-[3-chloro-5-(trifluoromethoxy)phenyl)-3-(2-(3-hydroxy-5-((5-hydroxy-1,4,5,6-tetrahydropyrimidin-2-yl)amino)benzamido)acetamido)propanoic acid] |

| SMILES | IC50 [1] [nM] | IC50 [2] [nM] | IC50 [3] [nM] |
| --- | --- | --- | --- |
| O=C(O)C[C@H](NC(=O)CNC(=O)c1cc(O)cc(NC2=NCC(O)CN2)c1)c1cc(F)cc(Br)c1 (stereo partly drawn) [Example 13, (3S)-3-[3-bromo-5-fluoro-phenyl)-3-(2-(3-hydroxy-5-((5-hydroxy-1,4,5,6-tetrahydropyrimidin-2-yl)amino)benzamido)acetamido)propanoic acid] | 0.6 | 0.6 | 0.1 |
| Cc1cc(Cl)cc([C@@H](CC(=O)O)NC(=O)CNC(=O)c2cccc(NC3=NCCN3)c2)c1O [Example C11, reference compound] | 33 | 17 | 2 |
